No end group written: not given here.

In test [1] the test system is CGRP release by nerve cells. In words: Measurement of CGRP release in culture supernatants of the N/K/M model (ELISA). In kind it is cell-based, rat. How it is done:
At the end of the experiment described in Example 3, the supernatants from the wells and from the inserts were collected separately and immediately frozen at −80° C. in order to analyze the CGRP content. The CGRP content was measured in the culture supernatants by means of an ELISA assay (Rat CGRP enzyme Immuno Assay Kit, Spi Bio A05482) according to the protocol recommended by the supplier. The results are expressed in μg of CGRP/ml of medium. The analysis of the results was carried out as described above.
A general note: An ELISA detects its analyte on a solid surface through an enzyme-linked reagent.

The test system of test [2] is nerve cells of the N/K/M multicellular model. As to the kind of experiment: Growth of nerve endings through the porous insert (anti-β-tubulin epifluorescence). In kind it is cell-based. To be noted: 10^−5 M noradrenalin, 10 days. The protocol: Using a multicellular model as obtained in Example 1, the cells were cultured in the absence or presence of 10^−5 M noradrenalin, for 10 days.
The N/K/M culture medium was deposited into the culture wells and into the inserts.
The various media were renewed 50/50 every day.
The nerve cells were labelled with an anti-β-tubulin monoclonal antibody (Sigma T8660) and then visualized with goat anti-mouse immunoglobulin antibody-Alexa fluor 488 conjugate (Interchim A-11029).
After thorough washing in PBS, the preparations were observed by epifluorescence (Nikon Diaphot 300 microscope) and photographed.
The photographs were taken below the insert (on the keratinocyte-neuron site).

Test [3] concerns nerve cell-keratinocyte-melanocyte (N/K/M) multicellular model (melanogenesis). As to the kind of experiment: Melanin amount in nerve cell-keratinocyte-melanocyte (N/K/M) multicellular model under noradrenergic stress. In kind it is cell-based, human. The settings on record: for amount of melanin, +noradrenalin: 10^−5 M noradrenalin alone (Control) or with CGRP8-37 10^−6 M or Calmiskin 0.03%; for melanin synthesis by melanocytes (in words): multicellular model. The protocol: The experimental data were analyzed by means of the PRISM® software (graph pad software). The intergroup comparisons were carried out by analysis of variance (ANOVA) using Dunnett's multiple comparison test. The comparisons between two samples were carried out by analysis using the T test. They represent the mean of 4 independent experiments. They are expressed in μg of melanin/ml.

The mark [4] stands for this setting: 10 days, mean of 4 independent experiments.

Take `NC[C@H](O)c1ccc(O)c(O)c1` [noradrenalin]: in test [1] (insert supernatant, 10^−5 M noradrenalin, with or without 0.03% Calmiskin), the “CGRP release in the insert (in words)” value is “very substantial”. The “CGRP content, insert” value in test [1] (supernatant of inserts (nerve cells), 10 days, 10^−5 M noradrenalin alone or with 0.03% Calmiskin) is on record as 493.86 ± 11.57 μg of CGRP/ml of medium. Further, the “CGRP content, culture well” value in test [1] (supernatant of wells (keratinocyte/melanocyte side), 10 days, 10^−5 M noradrenalin alone or with 0.03% Calmiskin) is on record as 170.48 ± 19.47 μg of CGRP/ml of medium. In addition, the “density of the cell extensions (nerve endings crossing the insert)” value in test [2] was “increased”. In addition, the “change in amount of melanin synthesized in the cocultures” value in test [3] (10^−5 M noradrenalin versus control without noradrenalin, 10 days) is on record as “+15%”. Besides, the “amount of melanin, +noradrenalin” value in test [3] (setting [4]) is on record as 25.77 ± 0.72 μg of melanin/ml. Also, the “melanin synthesis by melanocytes (in words)” value in test [3] is “increase in melanin synthesis”.
Consider “CGRP8-37: reference CGRP receptor antagonist (VTHRLAGLLSRSGGVVKNNFVPTNVGSKAF; ends and bridges not checked; UniProt P06881 90-119, looked up, fragment)”, for which the “amount of melanin, +noradrenalin” value in test [3] (setting [4]) is listed as 21.35 ± 0.91 μg of melanin/ml. In addition, the “amount of melanin, without noradrenalin” value in test [3] (10 days, no noradrenalin, CGRP8-37 10^−6 M, Calmiskin 0.03%, mean of 4 independent experiments) is recorded as 19.33 ± 0.48 μg of melanin/ml. Besides, in test [3], the “melanin synthesis by melanocytes (in words)” value is recorded as “considerable decrease in melanin synthesis”. Further, the “change in amount of melanin in the presence of noradrenalin” value in test [3] (versus 10^−5 M noradrenalin alone, Calmiskin 0.03%, CGRP8-37 10^−6 M, 10 days) is given as −17.2%.

The record behind these values is patent publication US7910367B2, “Cell culture model and applications thereof” (L'Oreal, priority 2006, dated 2011).
